These results are taken from patent US20240217917A1, “PHOTOLYTICALLY DEGRADABLE COMPOUNDS AND METHODS” (The University of Stavanger, priority 2021, published 2024).

Each structure is given as a SMILES string. ≈ marks a conversion by molar mass, not a printed value.

One data set can be described thus: UV-vis spectra. It is filed as physicochemical. The settings on record: ethanol as solvent. The method, then:
As illustrated in the UV-vis spectra, where the nitro group is positioned greatly influences the λmax. With nitro substitution on the aniline these values are around 380 and 400 nm, whereas for the two other compounds a hypsochromic shift is observed all the way down to 248 nm.
UV-vis spectra were obtained on an Agilent 8453 single-beam UV-vis spectrophotometer with a deuterium-discharge lamp for the UV range and a tungsten lamp for the visible wavelength range. Samples were analysed in an Agilent open-top UV quartz cell (10 mm, 3.0 mL) with ethanol as solvent. Wavelengths are reported in nm and molar attenuation coefficients in M^−1cm^−1.

Data set [1] is described as follows: Photolysis of compounds 1-5, 125 W medium pressure mercury vapour lamp, conversion by 1H-NMR. Type of data set: physicochemical. The settings on record: for stability under irradiation at lower pH: pH values lower than 11. The method, then:
Following the procedure by Wan and Muralidharan (Wan, P.; Muralidharan, S. J. Am. Chem. Soc. 1988, 110 (13), 4336-4345) aminol 1 (compound 1) was photolysed in acetonitrile and water (7:3, v:v) at the appropriate pH using a 125 W medium pressure mercury vapour lamp. Seven experiments were performed from pH 13 to pH 1 with a concentration of around 0.68 mM, and each reaction was irradiated for. 2 hours Following liquid-liquid extraction with DCM, all reaction mixtures were analysed with ^1H-NMR spectroscopy. Initially it was expected that a mechanism similar to the nitrophenethyl alcohols (Scheme 3) would occur and the expected products would therefore be N-methyl-p-nitroaniline, phenylacetaldehyde, 2-(p-nitroaniline)acetaldehyde, and toluene
Because of this, it seems likely that following excitation to the singlet state and intersystem crossing (ISC) to the triplet state, a proton is abstracted and initiates decomposition. Two products were identified from the NMR data; p-nitroaniline and benzaldehyde. This means that there are two carbon atoms in the starting material unaccounted for (Scheme 13). A reasonable hypothesis is that they remain in the aqueous phase during extraction as formaldehyde or glyoxal.

Data set [2] relates to S. Epidermidis. Kind of data set: Minimum inhibitory concentration (MIC) screen, OD 600 nm. Type of data set: cell-based. Set-up: key to Minimum inhibitory concentration, S. Epidermidis: I = inactive, i.e. below the activity threshold. As to conditions: screened at 100-1.6 μM. How it is done: (§1) With compounds 6-9 and the crude degradation mixtures in hand, the minimum inhibitory concentration (MIC) was screened against a number of gram-positive and gram-negative bacteria, including E. faecalis, E. coli, P. aeruginosa, S. aureus, S. agalactiae, and S. epidermidis. To determine the activity, optical density (OD) at 600 nm was measured to estimate the concentration of bacteria at concentrations from 1.6 -100 μM. Values below 0.05 are counted as active and indicates inhibition of growth, illustrated by plotting OD against the concentration for compounds 6-9, (FIG. 9). […] Black stapled lines at 0.05 for MIC and 30% for biofilm formation indicate activity threshold values. […] No activity was observed against the gram-negative bacteria (Table 3).

Data set [3] in a line: Photolysis of compounds 6-9, 6 W low-pressure mercury vapor lamp, conversion by 1H-NMR. As to conditions: pH 13; acetonitrile/NaOH solution 30/70; 254 nm low-pressure lamp; 24 hours. Type of data set: physicochemical. The method, then:
Aminol 6-9 (compounds 6-9) were dissolved in acetonitrile and diluted with a sodium hydroxide solution at pH 13 (30/70, V/V). Since all the compounds have strong absorption bands around 250 nm (FIG. 8), a 6 W low-pressure mercury vapor lamp was chosen as the irradiation source, since it emits mainly at 254 nm. All reactions were carried out in a 75 mL gas inlet flask (˜0.7 mM) under a constant stream of nitrogen with a quartz well cold finger for 24 hours.
Following aqueous workup, the reaction mixtures were analysed with ^1H-NMR spectroscopy. […] The photodegradation reaction for compound 6 can be seen in Scheme 21. Additionally, the two doublets at 7.47 and 8.13 ppm (Hc and Ha) have disappeared into a complicated multiplet, and the aliphatic protons around 3 ppm are no longer visible (FIG. 6).

The subject of a further data set is S. Agalactiae. Kind of data set: Minimum inhibitory concentration (MIC) screen, OD 600 nm. It is filed as cell-based. Set-up: key to Minimum inhibitory concentration, S. Agalactiae: I = inactive, i.e. below the activity threshold. As to conditions: screened at 100-1.6 μM; for MIC: Streptococcus agalactiae. How it is done: as §1
Data set [4] is described as follows: Solubility observed as precipitation in the MIC test. It is filed as physicochemical. As to conditions: higher concentrations in the S. agalactiae MIC test. The method, then:
as §1

Data set [5] deals with S. Epidermidis. The experiment in a line: Biofilm inhibition. It is filed as cell-based. The settings on record: threshold 30% biofilm formation. How it is done: as §1
The test system of a further data set is S. Aureus. The experiment in a line: Minimum inhibitory concentration (MIC) screen, OD 600 nm. Type of data set: cell-based. The settings on record: screened at 100-1.6 μM; for MIC: Staphylococcus aureus. Also noted: key to Minimum inhibitory concentration, S. Aureus: I = inactive, i.e. below the activity threshold. The method, then: as §1
A short description of data set [6]: Photolysis of compounds 1-5, 125 W medium pressure mercury vapour lamp, conversion by 1H-NMR. It is filed as physicochemical. As to conditions: same conditions.
The mark [7] stands for this setting: pH 13, 2 hours irradiation, acetonitrile and water (7:3), medium pressure mercury lamp.
Setting [8] is: pH 11, 2 hours irradiation, acetonitrile and water (7:3), medium pressure mercury lamp.

As for `O=[N+]([O-])c1ccc(CC(O)CNc2ccccc2)cc1` (centres unmarked) [Compound 3], in the data set “UV-vis spectra”, the E was determined as 15066.6 M⁻¹ cm⁻¹ and the λmax was 248 nm. In [1] (setting [7]), this compound showed a conversion after photolysis of 40%.
The MIC is the lowest concentration found to suppress growth. Regarding `O=[N+]([O-])c1ccc(CC(O)CNc2cc(Cl)c(OC(F)(F)C(F)C(F)(F)F)cc2Cl)cc1` (centres unmarked) [Compound 6], the “Minimum inhibitory concentration, S. Epidermidis” value in the data set on S. Epidermidis [2] is recorded as “I”. The “photodegradation” value in [3] is “complete conversion”. For the same compound, the minimal inhibitory concentration (MIC) in the data set on S. Agalactiae was found to be 6.3 µM (≈ 3.2 µg/mL). Further, the “solubility” value in data set [4] was “limited solubility”. Further, the “biofilm inhibition for S. epidermidis” value in the data set on S. Epidermidis [5] is 12.5 µM. The “Minimum inhibitory concentration, S. Aureus” value with S. Aureus is “I”.
Regarding `O=[N+]([O-])c1ccc(NCC(O)Cc2ccccc2)cc1` (centres unmarked) [Compound 1], in [6], the “conversion in reference experiments in the dark” value is recorded as “no conversion”. The compound further showed an E in the data set “UV-vis spectra” of 1740.0 M⁻¹ cm⁻¹. The λmax in the data set “UV-vis spectra” turned out to be 384 nm. For the same compound, the “conversion after photolysis” value is listed as “stops completely” in data set [1] (pH 5, 2 hours irradiation); 100% in [1] (setting [8]); 100% in data set [1] (setting [7]). Further, in data set [1] (pH 7, extrapolated from conversion after 2 hours), the “time to full decomposition” value is “ca. 6 hours”.
With `O=[N+]([O-])c1ccc(F)c(CC(O)CNc2cc(Cl)cc(Cl)c2F)c1F` (centres unmarked) [Compound 9, 1-((3,5-Dichloro-2-fluorophenyl)amino)-3-(2,6-difluoro-3-nitrophenyl)propan-2-ol], the MIC in the data set on S. Epidermidis [2] (Staphylococcus epidermidis), against S. Agalactiae and with S. Aureus was 50 µM (≈ 19.8 µg/mL) in each case.
In the data set “UV-vis spectra”, `O=[N+]([O-])c1cccc(CC(O)CNc2ccccc2)c1` (centres unmarked) [Compound 4] showed an E of 17018.7 M⁻¹ cm⁻¹ and a λmax of 248 nm. This compound also gave a conversion after photolysis in data set [1] (setting [7]) of 56%.
`O=C(NCC(O)CNc1ccc([N+](=O)[O-])cc1)C(Cl)Cl` (centres unmarked) [Compound 5] returned an E in “UV-vis spectra” of 17263.9 M⁻¹ cm⁻¹. The compound also yielded a λmax in the data set “UV-vis spectra” of 382 nm. The conversion after photolysis in [1] (setting [8]) was 68%; in data set [1] (pH 11, 2 hours irradiation, acetonitrile and water (7:3), medium pressure mercury lamp, listed as compound resembling chloramphenicol) it was 60%; in data set [1] (pH 13), “Full conversion”; in data set [1] (setting [7]), 100%. In addition, the “stability under irradiation at lower pH” value in [1] is on record as “remained stable”.
Regarding `O=[N+]([O-])c1cccc(NCC(O)Cc2ccccc2)c1` (centres unmarked) [Compound 2], in the data set “UV-vis spectra”, the E was found to be 1331.3 M⁻¹ cm⁻¹ and the λmax was 400 nm. Also, in data set [1] (setting [8]), the conversion after photolysis was 17%. Also, in [1] (setting [7]), the conversion after photolysis came to 17%. Moreover, in data set [1], the “stability under irradiation at lower pH” value was “remained stable”.
As for `O=[N+]([O-])c1ccc(F)c(CC(O)CNc2cc(Cl)c(F)c(Cl)c2F)c1F` (centres unmarked) [Compound 7, 1-((3,5-Dichloro-2,4-difluorophenyl)amino)-3-(2,6-difluoro-3-nitrophenyl)propan-2-ol], the “Minimum inhibitory concentration, S. Epidermidis” value in the data set with S. Epidermidis [2] is “I”. Besides, the “Minimum inhibitory concentration, S. Agalactiae” value with S. Agalactiae is on record as “I”. This compound displayed an MIC against S. Aureus of 50 µM (≈ 20.7 µg/mL).
Regarding `O=[N+]([O-])c1ccc(F)c(CC(O)CNc2cc(Cl)c(OC(F)(F)C(F)C(F)(F)F)cc2Cl)c1F` (centres unmarked) [Compound 8, 1-((2,5-Dichloro-4-(1,1,2,3,3,3-hexafluoropropoxy)phenyl)amino)-3-(2,6-difluoro-3-nitrophenyl)propan-2-ol], the “Minimum inhibitory concentration, S. Epidermidis” value in the data set with S. Epidermidis [2] is given as “I”. Further, in data set [3], the conversion after photolysis was determined as 56% and the “photodegradation” value is “complete degradation was not achieved”. For the same compound, the MIC with S. Agalactiae was found to be 6.3 µM (≈ 3.42 µg/mL). The “solubility” value in data set [4] was “limited solubility”. For the same compound, the “biofilm inhibition for S. epidermidis” value in the data set on S. Epidermidis [5] amounted to 25 µM. In the data set with S. Aureus, the “Minimum inhibitory concentration, S. Aureus” value is on record as “I”.
